This is an account of results in ChEMBL document CHEMBL1201862, “PubChem BioAssay data set” (2004).

Active and inactive are the calls of the source.

Some targets named below: Cytochrome P450 2C9 (Homo sapiens, UniProt P11712); Cytochrome P450 2D6 (Homo sapiens, UniProt P10635); Cytochrome P450 3A4 (Homo sapiens, UniProt P08684).
For experiment [1], the target named is T1, Neuropeptide Y receptor type 1 (Homo sapiens, UniProt P25929).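 Further: HEK293 cells with a CNG channel challenged with NPY then isoproterenol; potency as antagonist that reverses NPY suppression of cAMP signal.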
T1 sequence (P25929 whole entry): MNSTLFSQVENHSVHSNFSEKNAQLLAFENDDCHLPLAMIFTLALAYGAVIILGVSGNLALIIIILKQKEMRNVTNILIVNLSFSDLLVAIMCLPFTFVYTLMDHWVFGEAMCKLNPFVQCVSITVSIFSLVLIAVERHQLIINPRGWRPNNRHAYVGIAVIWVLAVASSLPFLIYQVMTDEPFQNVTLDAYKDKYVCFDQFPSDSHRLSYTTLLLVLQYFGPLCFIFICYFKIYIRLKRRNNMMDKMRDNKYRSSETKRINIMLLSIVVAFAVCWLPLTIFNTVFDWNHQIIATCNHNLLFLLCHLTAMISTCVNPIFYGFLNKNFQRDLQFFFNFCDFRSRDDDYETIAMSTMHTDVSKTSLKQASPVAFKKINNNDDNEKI
The class given is functional.

Experiment [2] deals with T2, Neuropeptide Y receptor type 2 (Homo sapiens, UniProt P49146).
T2 sequence (P49146 whole entry): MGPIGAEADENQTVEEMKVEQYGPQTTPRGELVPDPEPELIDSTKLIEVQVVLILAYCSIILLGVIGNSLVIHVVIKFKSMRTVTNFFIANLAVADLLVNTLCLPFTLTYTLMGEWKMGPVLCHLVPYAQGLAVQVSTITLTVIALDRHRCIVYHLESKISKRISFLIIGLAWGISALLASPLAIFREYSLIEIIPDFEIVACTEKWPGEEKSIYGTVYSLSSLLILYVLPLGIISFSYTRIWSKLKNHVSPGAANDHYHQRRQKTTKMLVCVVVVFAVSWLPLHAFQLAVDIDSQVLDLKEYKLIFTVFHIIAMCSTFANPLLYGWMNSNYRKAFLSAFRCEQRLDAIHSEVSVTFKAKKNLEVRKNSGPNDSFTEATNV
It counts as functional, cell-based.

The target of experiment [3] is Epstein-Barr nuclear antigen 1 (Epstein-Barr virus (strain B95-8) (HHV-4) (Human herpesvirus 4), UniProt P03211). As to the kind of experiment: EBNA-1 inhibitors, dose response, biochemical, fluorescence polarization, 1536-well (AID 2381).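 Further: fluorescence polarization of a Cy5 DNA probe bound by EBNA-1 protein.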 Also noted: species or system human gammaherpesvirus 4.
In experiment [4] the target is Lytic switch protein BZLF1 (Epstein-Barr virus (strain B95-8) (HHV-4) (Human herpesvirus 4), UniProt P03206). The experiment is described as follows: EBV ZTA inhibitors, dose response, counter-screen for EBNA-1 inhibitor project, biochemical, fluorescence polarization, Epstein-Barr virus, 1536-well (AID 2377).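 Further: fluorescence polarization of Cy5-labelled ZRE DNA probe bound by purified Zta.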 More on the design: species or system human gammaherpesvirus 4. (A counterscreen serves to expose hits that act by an unwanted route or on another target.)

Experiment [5] is described as follows: NIH-3T3 fibroblast cytotoxicity, dose response, cytotoxicity control, cell-based, fluorescence, Alamar Blue, secondary assay (AID 2327).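 Further: NIH-3T3 mouse fibroblasts cultured with fluconazole at 8 µg/mL.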 The class given is functional. On the technique in general: The colour change of resazurin is a common sign of viable cells or microbes.
The test system of experiment [6] is BJ. The experiment is described as follows: cytotoxicity toward BJ-TERT fibroblasts, dose response, cell-based, RAS-independent, luminescence (AID 1933). The class given is functional. Particulars: Homo sapiens.
The test system of experiment [7] is BJ. The experiment is described as follows: cells. The class given is functional, cell-based. Particulars: Homo sapiens.
A short description of experiment [8]: C. albicans growth with fluconazole, confirmation, fluorescence, retest (AID 2467). The class given is functional, cell-based.
The nature of experiment [9]: inhibitors of intracellular T. cruzi replication, confirmation, NIH3T3 host cells, beta-gal luminescence (AID 2044).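 Further: intracellular parasites grown in NIH/3T3 mouse fibroblasts as host cells; luminescent beta-galactosidase reporter signal from transgenic T. cruzi replicating inside host cells; inhibitors lower the luminescence signal.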 It counts as functional, cell-based.
Experiment [10] is described as follows: cytotoxicity toward NIH3T3 fibroblasts, dose response, counter-screen, cell-based, ATP luminescence, mouse fibroblasts (AID 2010).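 Further: cells exposed to compound for about 90 hours before reading.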 It counts as functional.
Experiment [11] concerns BJ. As to the kind of experiment: cytotoxicity toward BJ-TERT-LT-ST fibroblasts, dose response, cell-based, RAS-independent, luminescence (AID 1935).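 Further: BJ fibroblasts immortalized with TERT plus LT and ST oncogenes.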 It counts as functional. Particulars: Homo sapiens.
Experiment [12] can be described thus: cytotoxicity toward DRD oncogenic fibroblasts, dose response, cell-based, non-viral oncogenic, luminescence (AID 1934). It counts as functional. Particulars: Homo sapiens.
Experiment [13] in a line: cytotoxicity in HEK-293T cells, dose response, cytotoxicity control for TCR NF-kB inhibitor project, luminescence, T-cell screen hits (AID 489026).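 Further: cells exposed to compound about 14 hours before the viability readout.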 It counts as functional, cell-based.
Another experiment has as its system Vero. As to the kind of experiment: host cell cytotoxicity of antiviral hits, dose response, cytotoxicity control for West Nile virus antiviral project, secondary assay (AID 1650). It counts as functional. To be noted: Chlorocebus sabaeus.
A short description of experiment [14]: growth suppression of PTEN-null colon cells, dose response, cell-based, HCT116 PTEN knockout (AID 1047).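 Further: HCT116 colon tumor cells with PTEN knocked out; cells exposed to compound for 60 hours before readout; potency for loss of cell viability measured by luminescence.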 It counts as functional.
Experiment [15] is described as follows: growth suppression of beta-catenin-knockout colon cells, dose response, cell-based, HCT116, human colon tumor (AID 1045).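 Further: HCT116 colon tumor cells with beta catenin knocked out; cells exposed to compound for 60 hours.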 The class given is functional.
The target of experiment [16] is T3, Induced myeloid leukemia cell differentiation protein Mcl-1 (Homo sapiens, UniProt Q07820). The experiment is described as follows: MCL1-BIM BH3 interaction inhibitors, dose response, biochemical, fluorescence polarization, BIM-BH3 peptide, 1536-well (AID 2217). (In general: Polarisation of emitted light reports the rotation of a fluorescent probe.)
A further experiment deals with Bcl-2-like protein 1 (Homo sapiens, UniProt Q07817). As to the kind of experiment: BCL-XL inhibitors, dose response, selectivity assay for MCL1 inhibitor project, biochemical, fluorescence polarization, 1536-well (AID 2218).
The target in experiment [17] is T3, Induced myeloid leukemia cell differentiation protein Mcl-1. It counts as functional.
In another experiment the target is Cytochrome P450 2C19 (Homo sapiens, UniProt P33261). As to the kind of experiment: Cytochrome panel assay with activity outcomes. Panel member name: p450-cyp2c19 Compounds with AC50 equal or less than 10 uM are considered active. It counts as functional. Particulars: read-out: AC50.
A further experiment deals with T4, Cytochrome P450 1A2 (Homo sapiens, UniProt P05177).
T4 sequence (P05177 whole entry): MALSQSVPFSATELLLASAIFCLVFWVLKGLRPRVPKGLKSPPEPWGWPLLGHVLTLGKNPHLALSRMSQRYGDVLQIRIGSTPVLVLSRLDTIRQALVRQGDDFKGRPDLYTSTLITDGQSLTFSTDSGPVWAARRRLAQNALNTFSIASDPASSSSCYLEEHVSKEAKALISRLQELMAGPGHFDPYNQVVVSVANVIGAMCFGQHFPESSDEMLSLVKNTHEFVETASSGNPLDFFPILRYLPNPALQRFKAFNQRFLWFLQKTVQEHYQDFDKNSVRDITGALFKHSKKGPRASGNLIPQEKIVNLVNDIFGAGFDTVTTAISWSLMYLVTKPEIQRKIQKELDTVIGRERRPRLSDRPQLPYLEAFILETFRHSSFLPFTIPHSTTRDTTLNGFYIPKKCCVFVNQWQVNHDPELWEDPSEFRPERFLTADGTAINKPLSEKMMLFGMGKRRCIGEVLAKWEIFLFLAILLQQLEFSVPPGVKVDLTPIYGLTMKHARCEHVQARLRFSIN

The target in experiment [18] is T5, Microphthalmia-associated transcription factor (Homo sapiens, UniProt O75030).
T5 sequence (O75030 whole entry): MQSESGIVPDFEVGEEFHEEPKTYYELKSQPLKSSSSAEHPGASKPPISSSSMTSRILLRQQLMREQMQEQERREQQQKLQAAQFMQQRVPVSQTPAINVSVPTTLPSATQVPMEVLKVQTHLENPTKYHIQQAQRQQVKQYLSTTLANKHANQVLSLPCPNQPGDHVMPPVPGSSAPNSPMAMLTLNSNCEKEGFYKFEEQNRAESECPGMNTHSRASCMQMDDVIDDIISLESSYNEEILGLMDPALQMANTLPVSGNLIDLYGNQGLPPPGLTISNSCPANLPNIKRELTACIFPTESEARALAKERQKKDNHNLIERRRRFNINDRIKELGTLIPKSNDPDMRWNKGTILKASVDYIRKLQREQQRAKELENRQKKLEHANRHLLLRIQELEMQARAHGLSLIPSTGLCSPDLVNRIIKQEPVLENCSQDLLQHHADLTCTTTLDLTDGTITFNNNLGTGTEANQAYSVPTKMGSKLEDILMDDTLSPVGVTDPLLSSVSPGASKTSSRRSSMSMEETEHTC
The experiment is described as follows: TRPM1 promoter luciferase signal decrease, dose response, MITF inhibitor project, cell-based, SK-MEL-5, cherry-picked, set 3 (AID 493073).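 Further: SK-MEL-5 melanoma cells with luciferase driven by the MITF target TRPM1 promoter.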 It counts as functional.

Experiment [19] has as its target T6, RNA-binding protein pos-1 (Caenorhabditis elegans, UniProt G5EF15).
T6 sequence (G5EF15 whole entry): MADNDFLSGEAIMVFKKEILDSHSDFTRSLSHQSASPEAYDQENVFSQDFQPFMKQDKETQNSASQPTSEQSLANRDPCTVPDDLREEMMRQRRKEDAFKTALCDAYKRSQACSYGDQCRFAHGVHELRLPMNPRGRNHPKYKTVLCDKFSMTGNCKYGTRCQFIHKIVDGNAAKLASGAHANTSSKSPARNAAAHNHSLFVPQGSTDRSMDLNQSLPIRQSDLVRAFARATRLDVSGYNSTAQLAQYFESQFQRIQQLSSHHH
As to the kind of experiment: inhibitors of POS-1/mex-3 RNA binding, dose response, biochemical, fluorescence polarization (AID 1964).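 Further: purified POS-1 fused to maltose binding protein made in E. coli; potency of compounds blocking POS-1 binding to fluorescent RNA.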

The target of experiment [20] is T7, Zinc finger protein mex-5 (Caenorhabditis elegans, UniProt Q9XUB2).
T7 sequence (Q9XUB2 whole entry): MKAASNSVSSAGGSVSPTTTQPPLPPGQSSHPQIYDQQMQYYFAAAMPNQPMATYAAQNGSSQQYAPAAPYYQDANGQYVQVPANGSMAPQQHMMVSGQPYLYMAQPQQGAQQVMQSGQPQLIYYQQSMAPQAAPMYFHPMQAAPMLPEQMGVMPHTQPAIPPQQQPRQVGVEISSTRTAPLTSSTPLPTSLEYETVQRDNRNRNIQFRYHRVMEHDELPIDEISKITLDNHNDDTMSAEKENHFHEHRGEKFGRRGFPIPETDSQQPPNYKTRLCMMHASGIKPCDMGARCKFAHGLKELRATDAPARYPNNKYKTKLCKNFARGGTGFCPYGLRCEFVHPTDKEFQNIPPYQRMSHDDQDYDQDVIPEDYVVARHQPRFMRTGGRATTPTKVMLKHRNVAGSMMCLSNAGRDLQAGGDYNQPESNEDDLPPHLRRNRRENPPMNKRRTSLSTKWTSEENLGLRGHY
As to the kind of experiment: MEX-5/TCR-2 RNA interaction inhibitors, dose response, biochemical, C. elegans, fluorescence polarization (AID 1960).

The target of a further experiment is Genome polyprotein (dengue virus type 2, UniProt P29990). As to the kind of experiment: Dengue-2 NS5 methyltransferase inhibitors, primary screen, biochemical, confirmation dose response (AID 588689). The class given is functional.
The nature of experiment [21]: M. tuberculosis growth inhibition, HTS (AID 449762). It counts as functional.
A short description of experiment [22]: microbe, parasite or virus in culture. It counts as functional. To be noted: Mycobacterium tuberculosis.

T3 sequence (Q07820 whole entry): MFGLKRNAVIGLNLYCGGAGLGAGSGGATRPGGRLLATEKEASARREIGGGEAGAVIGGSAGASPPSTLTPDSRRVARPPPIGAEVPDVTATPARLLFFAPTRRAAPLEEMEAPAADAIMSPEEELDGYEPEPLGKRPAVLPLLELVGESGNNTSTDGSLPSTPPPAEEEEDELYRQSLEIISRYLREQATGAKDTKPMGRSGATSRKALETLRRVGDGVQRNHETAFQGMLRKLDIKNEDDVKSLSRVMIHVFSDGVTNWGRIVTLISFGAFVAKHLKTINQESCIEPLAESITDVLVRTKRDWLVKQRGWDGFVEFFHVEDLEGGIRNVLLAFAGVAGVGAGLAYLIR
Bcl-2-like protein 1, sequence (Q07817 whole entry): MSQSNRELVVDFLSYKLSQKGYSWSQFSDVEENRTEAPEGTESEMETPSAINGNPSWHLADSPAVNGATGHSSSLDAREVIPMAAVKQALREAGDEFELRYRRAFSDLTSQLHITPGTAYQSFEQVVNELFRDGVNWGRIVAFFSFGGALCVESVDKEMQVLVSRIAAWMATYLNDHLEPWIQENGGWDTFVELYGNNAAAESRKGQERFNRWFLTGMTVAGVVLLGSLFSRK
Epstein-Barr nuclear antigen 1, sequence (P03211 whole entry): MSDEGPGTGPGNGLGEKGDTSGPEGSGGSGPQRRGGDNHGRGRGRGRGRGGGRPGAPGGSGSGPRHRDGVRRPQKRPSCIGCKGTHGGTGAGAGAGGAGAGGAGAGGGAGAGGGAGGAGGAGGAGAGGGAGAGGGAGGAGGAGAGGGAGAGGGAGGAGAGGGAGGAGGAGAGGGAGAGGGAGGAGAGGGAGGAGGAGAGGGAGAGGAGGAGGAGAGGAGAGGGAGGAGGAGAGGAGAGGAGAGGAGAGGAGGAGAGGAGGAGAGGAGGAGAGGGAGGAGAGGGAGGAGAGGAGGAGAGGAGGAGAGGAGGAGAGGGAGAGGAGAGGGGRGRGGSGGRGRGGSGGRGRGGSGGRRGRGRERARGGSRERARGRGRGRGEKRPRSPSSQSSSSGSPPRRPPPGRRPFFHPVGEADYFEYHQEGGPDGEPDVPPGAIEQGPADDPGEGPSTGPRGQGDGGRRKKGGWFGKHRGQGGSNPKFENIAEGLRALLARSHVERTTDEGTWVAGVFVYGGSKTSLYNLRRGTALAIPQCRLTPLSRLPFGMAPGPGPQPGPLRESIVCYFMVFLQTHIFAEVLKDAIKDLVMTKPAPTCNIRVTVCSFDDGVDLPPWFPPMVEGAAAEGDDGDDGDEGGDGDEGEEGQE
Genome polyprotein, sequence (P29990 2492-3391 limits assumed): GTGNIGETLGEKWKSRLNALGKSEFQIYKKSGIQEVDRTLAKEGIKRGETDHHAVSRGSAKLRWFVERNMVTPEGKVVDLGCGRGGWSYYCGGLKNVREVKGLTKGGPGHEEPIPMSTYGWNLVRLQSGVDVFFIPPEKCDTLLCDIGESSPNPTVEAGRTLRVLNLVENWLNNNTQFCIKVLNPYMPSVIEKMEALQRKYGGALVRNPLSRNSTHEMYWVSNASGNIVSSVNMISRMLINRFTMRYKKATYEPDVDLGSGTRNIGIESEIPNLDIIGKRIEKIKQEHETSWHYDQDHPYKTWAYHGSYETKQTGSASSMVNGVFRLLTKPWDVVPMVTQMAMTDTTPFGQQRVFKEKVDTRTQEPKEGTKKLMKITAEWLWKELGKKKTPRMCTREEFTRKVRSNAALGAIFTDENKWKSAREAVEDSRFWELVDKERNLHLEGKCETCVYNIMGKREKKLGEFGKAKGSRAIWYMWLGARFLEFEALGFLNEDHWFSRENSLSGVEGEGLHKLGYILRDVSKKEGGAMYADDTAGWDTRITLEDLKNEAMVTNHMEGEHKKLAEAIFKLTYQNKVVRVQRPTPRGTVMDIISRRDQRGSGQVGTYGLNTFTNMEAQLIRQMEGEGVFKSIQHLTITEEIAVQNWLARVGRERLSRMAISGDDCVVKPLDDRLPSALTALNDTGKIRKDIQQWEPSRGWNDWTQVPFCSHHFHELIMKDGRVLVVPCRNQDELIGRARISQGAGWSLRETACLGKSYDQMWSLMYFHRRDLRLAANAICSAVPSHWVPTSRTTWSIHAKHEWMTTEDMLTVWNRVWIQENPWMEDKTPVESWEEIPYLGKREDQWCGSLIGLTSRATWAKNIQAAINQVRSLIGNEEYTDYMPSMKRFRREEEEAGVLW
Cytochrome P450 2D6, sequence (P10635 whole entry): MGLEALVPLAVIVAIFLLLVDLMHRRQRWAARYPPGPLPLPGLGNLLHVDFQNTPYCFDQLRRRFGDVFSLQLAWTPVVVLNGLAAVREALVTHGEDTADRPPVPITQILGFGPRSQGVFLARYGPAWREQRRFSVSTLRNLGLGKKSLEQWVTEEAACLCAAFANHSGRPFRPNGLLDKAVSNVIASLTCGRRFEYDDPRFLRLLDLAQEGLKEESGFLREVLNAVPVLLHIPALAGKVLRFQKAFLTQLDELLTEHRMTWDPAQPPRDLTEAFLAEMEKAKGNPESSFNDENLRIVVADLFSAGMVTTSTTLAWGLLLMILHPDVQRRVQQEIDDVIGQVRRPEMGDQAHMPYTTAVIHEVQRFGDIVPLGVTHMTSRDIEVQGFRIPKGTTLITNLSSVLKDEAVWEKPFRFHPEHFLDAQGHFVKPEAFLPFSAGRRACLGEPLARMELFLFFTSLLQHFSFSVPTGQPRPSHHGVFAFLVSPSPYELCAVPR
Cytochrome P450 2C9, sequence (P11712 whole entry): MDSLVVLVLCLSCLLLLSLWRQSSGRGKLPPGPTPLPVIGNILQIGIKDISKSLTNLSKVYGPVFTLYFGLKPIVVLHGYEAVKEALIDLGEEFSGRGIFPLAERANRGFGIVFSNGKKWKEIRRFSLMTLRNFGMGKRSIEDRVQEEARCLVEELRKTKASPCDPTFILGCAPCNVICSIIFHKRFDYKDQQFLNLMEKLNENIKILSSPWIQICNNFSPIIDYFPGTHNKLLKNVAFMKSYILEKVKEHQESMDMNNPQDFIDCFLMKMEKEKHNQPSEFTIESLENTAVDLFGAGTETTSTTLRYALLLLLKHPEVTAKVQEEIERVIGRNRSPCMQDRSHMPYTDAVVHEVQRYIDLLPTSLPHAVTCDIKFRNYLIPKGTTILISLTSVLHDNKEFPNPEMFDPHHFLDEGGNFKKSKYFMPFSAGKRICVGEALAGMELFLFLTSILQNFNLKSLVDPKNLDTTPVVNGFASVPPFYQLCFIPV
Cytochrome P450 2C19, sequence (P33261 whole entry): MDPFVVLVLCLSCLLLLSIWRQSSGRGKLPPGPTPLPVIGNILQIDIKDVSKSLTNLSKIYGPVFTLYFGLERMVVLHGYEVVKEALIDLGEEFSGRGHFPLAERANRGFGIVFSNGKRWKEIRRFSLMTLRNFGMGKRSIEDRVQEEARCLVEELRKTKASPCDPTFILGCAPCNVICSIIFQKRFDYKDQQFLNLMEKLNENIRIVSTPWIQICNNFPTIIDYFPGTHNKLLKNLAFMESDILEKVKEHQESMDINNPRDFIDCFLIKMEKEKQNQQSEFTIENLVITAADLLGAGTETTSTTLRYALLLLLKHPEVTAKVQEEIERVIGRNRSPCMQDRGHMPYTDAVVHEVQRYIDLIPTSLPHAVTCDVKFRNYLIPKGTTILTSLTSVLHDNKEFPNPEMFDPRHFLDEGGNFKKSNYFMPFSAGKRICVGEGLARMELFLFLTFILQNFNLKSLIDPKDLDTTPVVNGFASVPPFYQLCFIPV
Cytochrome P450 3A4, sequence (P08684 whole entry): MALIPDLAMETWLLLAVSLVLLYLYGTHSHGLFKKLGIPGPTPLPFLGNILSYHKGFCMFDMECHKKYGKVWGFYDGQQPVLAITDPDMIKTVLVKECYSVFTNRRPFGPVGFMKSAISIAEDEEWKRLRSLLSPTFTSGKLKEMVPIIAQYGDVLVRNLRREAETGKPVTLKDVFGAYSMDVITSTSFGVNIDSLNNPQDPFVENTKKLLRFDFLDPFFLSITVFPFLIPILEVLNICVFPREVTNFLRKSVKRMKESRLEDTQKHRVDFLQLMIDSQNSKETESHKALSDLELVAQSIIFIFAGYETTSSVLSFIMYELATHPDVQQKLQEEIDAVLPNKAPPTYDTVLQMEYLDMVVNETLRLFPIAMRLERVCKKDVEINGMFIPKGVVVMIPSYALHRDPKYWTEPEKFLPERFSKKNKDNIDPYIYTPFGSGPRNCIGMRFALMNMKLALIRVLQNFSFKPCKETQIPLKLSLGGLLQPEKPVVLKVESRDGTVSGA
Lytic switch protein BZLF1, sequence (P03206 whole entry): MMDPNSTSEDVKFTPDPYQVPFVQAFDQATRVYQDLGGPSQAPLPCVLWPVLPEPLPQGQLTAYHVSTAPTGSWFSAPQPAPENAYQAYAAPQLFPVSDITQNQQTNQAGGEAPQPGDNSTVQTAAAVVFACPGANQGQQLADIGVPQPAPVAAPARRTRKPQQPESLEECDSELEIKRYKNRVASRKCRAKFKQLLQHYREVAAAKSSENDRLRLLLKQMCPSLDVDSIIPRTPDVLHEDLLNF

As to `CCSc1nc2ccc(OC)cc2cc1C#N`, the figures for the IC50 in experiment [1] and in experiment [2] were 11.1 µM (not active) and 17.8 µM (not active), respectively.
For `COc1ccc2oc(C(=O)OCC(=O)Nc3ccc(NC(C)=O)cc3)c(C)c2c1`, the IC50 in [3] is 4.71 µM (active); in [4] it was > 111 µM (not active).
As to `Cc1ccc2c(c1)sc(-c1ccc(N(C)C)cc1)[n+]2C`, the EC50 in experiment [5] was > 160 µM (inactive); in the experiment with BJ [6], 3.83 µM (active); in the experiment with BJ [7], 609 nM (active); in experiment [8], 39 nM (active); in experiment [9], < 100 nM (active); in experiment [10], > 60 µM (not active). For the same compound, the figures for the EC50 (in the experiment with BJ [11]; in [12]; in the experiment “cells”) were 20.9 µM (inconclusive), 14.5 µM (active) and < 4 nM (active), respectively. Also, in [13], the IC50 was > 80 µM (inactive).
In the case of `COc1ccc(-c2cc(-c3ccc(C)cc3)nc(SCc3nnc(-c4ccccc4)o3)c2C#N)cc1OC`, the CC50 with Vero is 14.1 µM (active). Also, the EC50 in experiment [14] was 4.41 µM (active); in [15], 4.36 µM (active).
With `Clc1ccccc1CSc1nnc(/C=C/c2ccccc2)o1`, the values for the IC50 in experiment [1] and in experiment [2] were 6.96 µM (active) and 8.09 µM (active), respectively. Besides, the AC50 at Cytochrome P450 2C9 was 7.94 µM (inconclusive).
`O=C(N/N=C/c1ccncc1)c1cc([N+](=O)[O-])cc([N+](=O)[O-])c1O`: the IC50 in [16] is > 36.3 µM (not active); against Bcl-2-like protein 1 it was > 109 µM (not active); in experiment [17] it was 3.25 µM (active). In addition, the AC50 on Cytochrome P450 2C19 was 2.51 µM (inconclusive); at Cytochrome P450 2D6, 14.1 µM (inconclusive); on Cytochrome P450 1A2 it was 5.01 µM (inconclusive); on Cytochrome P450 3A4, 1 µM (inconclusive).
With `C/C(=N/NC(=O)C(O)(c1ccccc1)c1ccccc1)c1ccc([N+](=O)[O-])o1`, the EC50 in experiment [9] was < 100 nM (active); in experiment [10], > 60 µM (not active); in “cells”, 222 nM (active). Besides, the concentration at half-maximal activity (AC50) in experiment [18] was 9.84 µM (active).
Consider `Cc1nc2ccccc2c(=O)n1/N=C/c1ccc(O)c(O)c1O`, for which the EC50 in experiment [19] was 12.9 µM (active); in experiment [20], 193 nM (active). The IC50 was 2.07 µM (active) in [16], > 109 µM (not active) against Bcl-2-like protein 1 and > 100 µM (active) at Genome polyprotein.
Consider `C/C(=N\NC(=O)c1cc2c(s1)CCC(C)C2)c1ccncc1` (stereo not drawn), for which the IC50 in experiment [21] is > 100 µM (active). The CC50 in [22] was > 40 µM (active).

For orientation: IC50 means the concentration needed to halve the response being measured. As usually defined, the EC50 is the midpoint of the concentration-response curve. In general, AC50 refers to the midpoint of the concentration-response curve, whichever way the signal moves.
